The term inhibition denotes how much of the control response was suppressed.

SMILES strings stand for the structures. Activity calls are given as the source filed them. No cut-off for these calls is given here. A value given as a limit tells only on which side of the number the result lay.

Consider 13 molecules from ChEMBL document CHEMBL4184261, “Activation loop targeting strategy for design of receptor-interacting protein kinase 2 (RIPK2) inhibitors” (Bioorg Med Chem Lett, 2018).

For assay [1], the target named is Receptor-interacting serine/threonine-protein kinase 2 (Homo sapiens) (UniProt O43353). Nature of the assay: Inhibition of wild type recombinant human His6-tagged RIPK2 at 5 uM using RS repeat peptide substrate incubated for 2 hrs by ADP-Glo assay.
Sequence of Receptor-interacting serine/threonine-protein kinase 2 (Homo sapiens) (O43353 whole entry): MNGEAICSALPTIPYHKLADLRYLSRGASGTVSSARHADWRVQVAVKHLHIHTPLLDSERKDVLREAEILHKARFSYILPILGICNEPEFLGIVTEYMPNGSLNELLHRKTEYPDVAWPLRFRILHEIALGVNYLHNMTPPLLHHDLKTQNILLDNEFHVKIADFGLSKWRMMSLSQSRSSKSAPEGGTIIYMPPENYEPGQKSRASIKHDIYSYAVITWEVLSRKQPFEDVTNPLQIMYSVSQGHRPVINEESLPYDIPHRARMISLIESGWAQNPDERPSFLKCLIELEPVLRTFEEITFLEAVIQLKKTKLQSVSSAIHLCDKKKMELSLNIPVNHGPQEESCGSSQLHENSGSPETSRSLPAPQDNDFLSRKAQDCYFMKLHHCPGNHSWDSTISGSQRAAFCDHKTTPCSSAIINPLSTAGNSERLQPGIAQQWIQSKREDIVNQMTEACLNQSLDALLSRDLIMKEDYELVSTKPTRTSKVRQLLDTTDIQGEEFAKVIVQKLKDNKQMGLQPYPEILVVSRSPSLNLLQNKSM
Assay [2] deals with Receptor-interacting serine/threonine-protein kinase 2 (Homo sapiens), O43353 [R171C]. In words: Inhibition of recombinant human His6-tagged RIPK2 R171C mutant at 5 uM using RS repeat peptide substrate incubated for 2 hrs by ADP-Glo assay.
Sequence of Receptor-interacting serine/threonine-protein kinase 2 (Homo sapiens), O43353 [R171C] (O43353 whole entry R171C): as the sequence (O43353 whole entry) above, with R171C counted along it
The target of assay [3] is Receptor-interacting serine/threonine-protein kinase 2 (Homo sapiens) (UniProt O43353). Nature of the assay: Inhibition of wild type recombinant human His6-tagged RIPK2 at 0.5 uM using RS repeat peptide substrate incubated for 2 hrs by ADP-Glo assay. (In general: In ADP-Glo the light output rises with the ADP produced.)
For assay [4] the target is unchanged. In words: Inhibition of wild type recombinant human His6-tagged RIPK2 at 10 uM using RS repeat peptide substrate incubated for 2 hrs by ADP-Glo assay.
The species entered for assay [5] is Homo sapiens. Nature of the assay: Selectivity index, ratio of IC50 for recombinant human His6-tagged RIPK2 R171C mutant to IC50 for wild type recombinant human His6-tagged RIPK2.
Assay [6] addresses Vascular endothelial growth factor receptor 2 (Homo sapiens) (UniProt P35968). Nature of the assay: Inhibition of N-terminal GST tagged recombinant human KDR (789 to end residues) expressed in baculovirus infected Sf9 cells at 20 uM using poly-E4Y1 substrate incubated for 2 hrs by ADP-Glo assay.
The species named for assay [7] is Homo sapiens. Nature of the assay: Selectivity index, ratio of inhibition of N-terminal GST tagged recombinant human KDR (789 to end residues) expressed in baculovirus infected Sf9 cells to inhibition of wild type recombinant human His6-tagged RIPK2.

Sequence of Vascular endothelial growth factor receptor 2 (Homo sapiens) (P35968 whole entry): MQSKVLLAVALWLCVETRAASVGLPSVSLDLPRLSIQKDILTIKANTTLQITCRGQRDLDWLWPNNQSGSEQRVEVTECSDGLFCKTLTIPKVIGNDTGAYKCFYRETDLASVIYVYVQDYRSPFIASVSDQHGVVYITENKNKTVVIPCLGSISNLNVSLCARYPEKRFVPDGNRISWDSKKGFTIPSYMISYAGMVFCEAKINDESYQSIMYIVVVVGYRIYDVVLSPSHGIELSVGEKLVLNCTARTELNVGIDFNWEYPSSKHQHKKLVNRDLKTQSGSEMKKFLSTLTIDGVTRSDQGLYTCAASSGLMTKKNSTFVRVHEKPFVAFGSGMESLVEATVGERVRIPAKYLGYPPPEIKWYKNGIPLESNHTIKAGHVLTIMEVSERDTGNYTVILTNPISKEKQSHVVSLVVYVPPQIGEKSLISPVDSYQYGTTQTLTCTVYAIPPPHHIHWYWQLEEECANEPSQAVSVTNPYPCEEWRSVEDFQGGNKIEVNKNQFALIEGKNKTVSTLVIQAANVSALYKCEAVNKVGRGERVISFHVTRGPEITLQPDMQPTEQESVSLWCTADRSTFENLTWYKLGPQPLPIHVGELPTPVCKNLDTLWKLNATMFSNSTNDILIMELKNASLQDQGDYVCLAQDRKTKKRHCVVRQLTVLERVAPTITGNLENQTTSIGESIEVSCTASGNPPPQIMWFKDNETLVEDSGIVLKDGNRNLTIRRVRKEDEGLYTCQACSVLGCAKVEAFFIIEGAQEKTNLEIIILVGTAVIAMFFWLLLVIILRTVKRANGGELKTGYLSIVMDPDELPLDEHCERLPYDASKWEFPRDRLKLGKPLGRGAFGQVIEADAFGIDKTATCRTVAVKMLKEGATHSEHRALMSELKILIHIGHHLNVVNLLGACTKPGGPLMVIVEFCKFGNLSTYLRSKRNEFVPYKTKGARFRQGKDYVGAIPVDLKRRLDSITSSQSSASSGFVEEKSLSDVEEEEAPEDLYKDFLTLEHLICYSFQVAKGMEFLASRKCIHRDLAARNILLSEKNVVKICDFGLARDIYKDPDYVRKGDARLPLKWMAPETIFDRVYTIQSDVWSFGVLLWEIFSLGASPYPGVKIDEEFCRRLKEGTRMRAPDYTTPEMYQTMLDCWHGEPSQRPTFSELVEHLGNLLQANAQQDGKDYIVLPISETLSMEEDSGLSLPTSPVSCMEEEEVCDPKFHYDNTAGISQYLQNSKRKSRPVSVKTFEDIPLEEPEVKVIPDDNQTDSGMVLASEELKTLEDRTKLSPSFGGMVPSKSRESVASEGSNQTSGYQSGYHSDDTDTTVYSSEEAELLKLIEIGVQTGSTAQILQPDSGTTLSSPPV

As for `CNC(=O)c1cc(Oc2ccc(NC(=O)Nc3cccc(CC(=O)O)c3)c(F)c2)ccn1`, the inhibition result in assay [1] and in assay [2] was “inactive” in each case. On to `CNC(=O)c1cc(Oc2ccc(NC(=O)Nc3ccc(C(=O)O)cc3)c(F)c2)ccn1`, for which, in assay [3], the inhibition result was “inactive”. Regarding `CNC(=O)c1cc(Oc2ccc(NC(=O)Nc3cccc(C(C)(C)C(=O)O)c3)c(F)c2)ccn1`, the inhibition in assay [1] amounted to 47%.

For the molecule `CNC(=O)c1cc(Oc2ccc(NC(=O)Nc3cccc(C(=O)O)c3)c(F)c2)ccn1`, the inhibition result in assay [3] was “inactive”. As to `Nc1ccc(SCC(=O)O)c(F)c1`, in assay [4], the inhibition came to 10%.

In the case of `CNC(=O)c1cc(Oc2ccc(NC(=O)Nc3cccc(C(C)(C)N)c3)c(F)c2)ccn1`, the inhibition in assay [3] was 32%.

Consider `CNC(=O)c1cc(Oc2ccc(NC(=O)Nc3ccc(OCCS(C)(=O)=O)c(C)c3)c(F)c2)ccn1`, for which the inhibition in assay [3] turned out to be 35%. For the molecule `CNC(=O)c1cc(Oc2ccc(NC(=O)Nc3cccc(SCC(=O)O)c3)c(F)c2)ccn1`, in assay [1], the inhibition was 25%. `CNC(=O)c1cc(Oc2ccc(NC(=O)Nc3ccc(N4CC(=O)NS4(=O)=O)c(C)c3)c(F)c2)ccn1`: the inhibition in assay [3] turned out to be 1%. Turning to `CNC(=O)c1cc(Oc2ccc(NC(=O)Nc3ccc(SCC(=O)O)cc3)c(F)c2)ccn1`, the inhibition was 27% in assay [1] and 17% in assay [2].

`CNC(=O)c1cc(Oc2ccc(NC(=O)Nc3cccc(CCN)c3)c(F)c2)ccn1`: the inhibition in assay [3] amounted to 12%. Take `CNC(=O)c1cc(Oc2ccc(NC(=O)Nc3ccc(CC(=O)O)cc3)c(F)c2)ccn1`: the inhibition in assay [1] stood at 18%. For `CNC(=O)c1cc(Oc2ccc(NC(=O)Nc3ccc(SCC(=O)O)c(F)c3)c(F)c2)ccn1`, the inhibition in assay [1] came out at 70%; in assay [2], 64%; in assay [6], 35.8%. Moreover, in the assay listed under Homo sapiens [5], the Ratio IC50 is 2. The Selectivity Index in the assay filed under Homo sapiens [7] is greater than 10.
